In patent US11026880B2, “Extract of passionflower seeds and cosmetic, pharmaceutical, dermatological and nutraceutical compositions comprising same” (Laboratoires Expanscience, priority 2012, dated 2021):

Tests used:
Jurkat cells = assay: Lipid peroxidation in UV-irradiated Jurkat cells (C11-fluorine probe, flow cytometry); format: cell-based; details: UV + 50 μM BHT
Protocol: The protective effect of passionflower hydrolysate on lipid peroxidation was evaluated in UV-irradiated Jurkat cells.
Jurkat cells were incubated for 45 minutes in the presence or absence of passionflower hydrolysate or the reference (50 μM BHT) and in the presence of the fluorescent probe specific for the measurement of lipid peroxides (C11-fluorine). This fluorescent probe is a lipid analog that integrates into membranes and whose fluorescence intensity decreases when peroxidized. The cells were then irradiated by UV (UVB 240 mJ/cm^2+UVA 3.5 J/cm^2) in the presence of passionflower hydrolysate or the reference. At the conclusion of the irradiation, the cells were incubated for 30 minutes at 37° C. prior to being analyzed by flow cytometry. The fluorescence intensity results obtained were expressed as a % of the irradiated control.

[1] = tested on: Normal human keratinocytes; assay: Production of reactive oxygen species in keratinocytes under H2O2 stress (DCFH-DA probe); format: cell-based; details: for Amount of ROS DFU/OD540 (mean ± standard deviation): 24 hours preincubation, 100 μM H2O2 20 minutes
Protocol: The antioxidant action of passionflower hydrolysate on oxidative stress generated by hydrogen peroxide (H2O2) in keratinocytes was evaluated by measuring the amount of reactive oxygen species produced. This test is based on the use of a probe (DCFH-DA) that breaks down and fluoresces in contact with reactive oxygen species (ROS). The fluorescence emitted will be thus proportional to the amount of ROS produced by the cell in response to oxidative stress. Normal human keratinocytes were preincubated for 24 hours in the presence of passionflower hydrolysate or the reference molecules: 10 μM quercetin or 500 μM vitamin C. The cells were then incubated for 1 hour in the presence of the probe DCFH-DA and then treated with 100 μM H2O2 for 20 minutes, still in the presence of passionflower hydrolysate or the reference molecules. The ROS assay was carried out by measuring the fluorescence emitted. The results were normalized to the number of living cells determined using a neutral red uptake assay carried out in parallel. The amount of ROS emitted is thus expressed as fluorescence density (DFU)/optical density resulting from the neutral red assay (OD540). The results were statistically analyzed by one-way analysis of variance followed by Tukey's test.

Cc1cc(C(C)(C)C)c(O)c(C(C)(C)C)c1 [BHT]
Protection (%) against lipid peroxidation (Jurkat cells): 31% | Amount of lipid peroxides (% of the irradiated control) (Jurkat cells; UVB 240 mJ/cm^2+UVA 3.5 J/cm^2): 83 % of the irradiated control

O=c1c(O)c(-c2ccc(O)c(O)c2)oc2cc(O)cc(O)c12 [Quercetin, quercetin]
Amount of ROS DFU/OD540 (mean ± standard deviation) ([1]; 10 μM quercetin): 84549.570 ± 9476.724 DFU/OD540 | inhibition at 10 µM ([1]; Homo sapiens, Keratinocyte, 10 μM quercetin, 100 μM H2O2, read-out: Inhibition relative to the H2O2 control (ROS)): 71%

O=C1O[C@H]([C@@H](O)CO)C(O)=C1O [Vitamin C, vitamin C]
Amount of ROS DFU/OD540 (mean ± standard deviation) ([1]; 500 μM vitamin C): 35997.820 ± 10389.067 DFU/OD540 | inhibition at 500 µM ([1]; Homo sapiens, Keratinocyte, 500 μM vitamin C, 100 μM H2O2, read-out: Inhibition relative to the H2O2 control (ROS)): 87%
